# In PubChem BioAssay (NCI):
# Several values for one entry are separate records, joined by “and”; a condition that tells them apart may be missing. Identical values can stand only once.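 Following 48 hours of exposure in 96-well plates, responses at five concentrations were used to interpolate endpoints linearly. Here, GI50 denotes the concentration required for 50% inhibition of growth. TGI: total growth inhibition.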
# Legend:
# Assay in all cases: NCI-60 cell line screen, 48 h
# SF-539 CNS = tested on: SF-539 CNS
# OVCAR-8 ovarian = tested on: OVCAR-8 ovarian
# HCT-116 colon = tested on: HCT-116 colon
# MCF7 breast = tested on: MCF7 breast
# HOP-62 NSCLC = tested on: HOP-62 NSCLC
# CAKI-1 renal = tested on: CAKI-1 renal
# KM12 colon = tested on: KM12 colon
# CCRF-CEM leukemia = tested on: CCRF-CEM leukemia
# IGROV1 ovarian = tested on: IGROV1 ovarian
# EKVX NSCLC = tested on: EKVX NSCLC
Structure (SMILES),TGI (SF-539 CNS) [µM],TGI (OVCAR-8 ovarian),TGI (HCT-116 colon),TGI (MCF7 breast),TGI (HOP-62 NSCLC) [µM],TGI (CAKI-1 renal) [µM],TGI (KM12 colon),TGI (CCRF-CEM leukemia),TGI (IGROV1 ovarian),TGI (EKVX NSCLC),GI50 (OVCAR-8 ovarian),GI50 (MCF7 breast),GI50 (KM12 colon) [µM],GI50 (IGROV1 ovarian),GI50 (EKVX NSCLC) [µM],GI50 (SF-539 CNS) [µM],GI50 (CAKI-1 renal) [µM],GI50 (CCRF-CEM leukemia) [µM],GI50 (HCT-116 colon) [µM],GI50 (HOP-62 NSCLC) [µM]
Cc1c2c(cc3c1[nH]c1ccccc13)C(c1ccc(F)cc1)=NCC2,2.77,6.68 µM,5.41 µM,7.78 µM,6.54,4.79,7.37 µM,7.2 µM,3.73 µM,9.02 µM,,,,,,,,,,
O=C1c2ccccc2-c2ccc(O)cc21,52.8,42.2 µM,> 100 µM,67.2 µM,> 100,37.8,38.4 µM,,35.9 µM,37.8 µM,,,,,,,,,,
C[N+]1(C)C2CCC1CC(OC(=O)C(CO)c1ccccc1)C2 (centres undefined),> 100,> 100 µM,> 100 µM,> 100 µM,> 100,> 100,> 100 µM,> 100 µM,> 100 µM,> 100 µM,,,,,,,,,,
CCC(C)C(NC(=O)C(CCCCN)NC(=O)C(NC(=O)C(CCC(N)=O)NC(=O)C(CCCNC(=N)N)NC(C)=O)C(C)CC)C(=O)NC(Cc1c[nH]c2ccccc12)C(=O)NC(Cc1ccccc1)C(=O)NC(CCC(N)=O)C(=O)NC(CC(N)=O)C(=O)NC(CCCNC(=N)N)C(=O)NC(CCCNC(=N)N)C(=O)NC(CCSC)C(=O)NC(CCCCN)C(=O)NC(Cc1c[nH]c2ccccc12)C(=O)NC(CCCCN)C(=O)NC(CCCCN)C(N)=O (centres undefined),> 50,> 50 µM,> 50 µM,> 50 µM,> 50,> 50,> 50 µM,> 50 µM,> 50 µM,> 50 µM,,,,,,,,,,
Cc1c(N)nc([C@H](CC(N)=O)NC[C@H](N)C(N)=O)nc1C(=O)N[C@H](C(=O)N[C@H](C)[C@@H](O)[C@H](C)C(=O)N[C@H](C(=O)NCCc1nc(-c2nc(C(=O)NCCC[S+](C)C)cs2)cs1)[C@@H](C)O)C(OC1OC(CO)C(O)C(O)C1OC1OC(CO)C(O)C(OC(N)=O)C1O)c1cnc[nH]1 (some centres undefined),,22.8 µM and 11.2 µM and 15.2 µM,20.9 µM [middle of 4 runs],22.5 µM and 25 µM and > 100 µM,,,24.5 µM and 23 µM and > 100 µM,25 µM [middle of 4 runs],22.9 µM and 29 µM and 33.6 µM,22 µM and 25 µM,1.49 µM and 1.59 µM,1.71 µM and 3.16 µM,4.49,6.89 µM and 1.22 µM,25,,,,,
N#CCc1[nH]nc2nc(SCc3ccccc3)nc(N3CCCCC3)c12,37.8,> 100 µM,32.4 µM,40.4 µM,35.5,34.6,33 µM,33.8 µM,,39.5 µM,,,,,,,,,,
O=C1CS(=O)(=O)C(c2cccc(Oc3ccccc3)c2)N1c1cccc(Cl)c1Cl (centres undefined),46.6,60.1 µM,40.9 µM,21.2 µM,> 100,> 100,> 100 µM,> 100 µM,,83.7 µM,,,,,,,,,,
S=C(NCCCCCCNC(=S)Nc1c2ccccc2nc2ccccc12)Nc1c2ccccc2nc2ccccc12,99.9,> 100 µM,> 100 µM,> 100 µM,> 100,> 100,> 34.7 µM,> 100 µM,> 100 µM,> 100 µM,,,,,,,,,,
CCn1cc(C(=O)O)c(=O)c2cc(F)c(N3CCN(Cn4c(O)c(N=NC(=O)c5ccncc5)c5cc(Cl)ccc54)CC3)cc21,63.1,> 100 µM,> 100 µM,> 100 µM,55.2,72.8,> 100 µM,,61.6 µM,> 100 µM,,,,,,,,,,
CN1CCN(CCCOc2ccc3ncnc(Nc4ccc(Oc5cccc(C(F)(F)F)c5)c(Cl)c4)c3c2)CC1,3,10.7 µM,,3.06 µM,,3.07,4.01 µM,7.46 µM,2.43 µM,3.4 µM,2.78 µM,1.38 µM,1.86,0.908 µM,1.16,1.6,1.31,2.32,,
O=c1c2c([nH]c3nccn13)CCCC2,> 10,> 10 µM,> 10 µM,> 10 µM,> 10,> 10,> 10 µM,> 10 µM,> 10 µM,> 10 µM,,,,,,,,,,
COC1CCC(OS(C)(=O)=O)CO1 (centres undefined),> 100,,> 100 µM,,> 100,,> 100 µM,91.7 µM,> 100 µM,,,,,,,,,,,
OC(c1ccc(-c2ccccc2)cc1)(c1ccc(-c2ccccc2)cc1)c1ccc(-c2ccccc2)cc1,,> 100 µM,> 100 µM,> 100 µM,> 100,> 100,> 100 µM,,> 100 µM,> 100 µM,,,,,,,,,,
C=C1C(C2(C)C=CC(=O)OC3(C)COC(=O)CC32)C(OC=O)C(OC(=O)C(O)C(C)CC)C2(C)C(c3ccoc3)CC(OC(C)=O)C12O (centres undefined),> 100,> 100 µM,> 100 µM,> 100 µM,> 100,> 100,> 100 µM,> 100 µM,> 100 µM,> 100 µM,,,,,,,,,,
C=CCOCCCC(=O)C(=[N+]=[N-])C(=O)OC,> 100,> 100 µM,> 100 µM,,,> 100,> 100 µM,> 100 µM,> 100 µM,,,,,,,,,,,
O=C1c2scnc2-c2nccc3c2c1nc1ccccc13,1.54,1.21 µM,,1.03 µM,8.18,3.83,,> 100 µM,> 100 µM,> 20.2 µM,,,,,,,,,,

Structure (SMILES),TGI (SF-539 CNS) [µM],TGI (OVCAR-8 ovarian),TGI (HCT-116 colon),TGI (MCF7 breast),TGI (HOP-62 NSCLC) [µM],TGI (CAKI-1 renal) [µM],TGI (KM12 colon),TGI (CCRF-CEM leukemia),TGI (IGROV1 ovarian),TGI (EKVX NSCLC),GI50 (OVCAR-8 ovarian),GI50 (MCF7 breast),GI50 (KM12 colon) [µM],GI50 (IGROV1 ovarian),GI50 (EKVX NSCLC) [µM],GI50 (SF-539 CNS) [µM],GI50 (CAKI-1 renal) [µM],GI50 (CCRF-CEM leukemia) [µM],GI50 (HCT-116 colon) [µM],GI50 (HOP-62 NSCLC) [µM]
CO[C@@]12C[C@@H](CNC(=O)c3cc(Br)c[nH]3)O[C@@H]1NC(=O)N2,> 100,> 100 µM,> 100 µM,> 100 µM,> 100,> 100,> 100 µM,> 100 µM,> 100 µM,> 100 µM,,,,,,,,,,
COc1ccc(/C=c2/[nH]c(=O)/c(=C\c3ccc(OCc4ccccc4)cn3)[nH]c2=O)cc1,> 100,> 100 µM,> 100 µM,> 100 µM,> 100,> 100,> 100 µM,> 100 µM,,> 100 µM,,,,,,,,,,
CN(C)CCNc1c([N+](=O)[O-])cc2c3c(cccc13)C(=O)N(CCN(C)C)C2=O,8.29,3.27 µM,15.3 µM,> 20.4 µM,8.49,6.6,> 26.4 µM,> 100 µM,8.17 µM,4.37 µM,,,,,,,,,,
O=C(O)C(Cc1ccccc1)N1C(=O)c2ccccc2C1=O (centres undefined),> 100,> 100 µM,> 100 µM,> 100 µM,> 100,> 100,> 100 µM,65.1 µM,> 100 µM,> 100 µM,,,,,,,,,,
CC(=O)OCCC[C@@H]1C(=C(C)C)CCC2[C@@]1(C)CC[C@@]1(C)C[C@](C)(CCC=C(C)C)CC[C@]21C (some centres undefined),> 100,> 100 µM,> 100 µM,> 100 µM,> 100,> 100,> 100 µM,> 100 µM,> 100 µM,> 100 µM,,,,,,,,,,
CCN(CC)/C(=C\Cl)Nc1ccccn1,> 100,> 100 µM,> 100 µM,,> 100,> 100,> 100 µM,> 100 µM,> 100 µM,> 100 µM,,,,,,,,,,
OC1C=C2C3CN(Cc4cc5c(cc43)OCO5)[C@H]2C[C@@H]1O (some centres undefined),> 100,91.2 µM,25.1 µM,22.2 µM,> 100,29.7,43.9 µM,7.04 µM,> 100 µM,28.6 µM,,,,,,,,,,
O=C1CC(N2C(=O)/C(=C/C(Cl)=C\c3ccc([N+](=O)[O-])cc3)SC2=S)C(=O)N1c1ccc(Cl)cc1 (centres undefined),4.14,> 100 µM,3.04 µM,> 100 µM,5.5,3.28,,12.4 µM,3.26 µM,> 100 µM,0.832 µM,1.38 µM,,1.03 µM,3.11,1.69,1.13,0.486,1.35,1.73
O=C1CCC(NC(=O)Cc2ccc(O)cc2)C(=O)N1 (centres undefined),,> 2500 µM,> 2500 µM,,,> 2500,> 2500 µM,,> 2500 µM,> 2500 µM,,,,,,,,,,
O=C(NN1C(=O)/C(=C/c2ccc(Cl)cc2)N=C1c1ccccc1)c1c(Cl)c(Cl)c(Cl)c(Cl)c1-c1nc2ccccc2[nH]1,> 100,> 100 µM,45.2 µM,60.3 µM,> 100,78.8,28.5 µM,> 100 µM,> 100 µM,> 100 µM,,,,,,,,,,
CC(=O)C1(c2ccccc2)CCCN(C)CC1 (centres undefined),,> 100 µM,> 100 µM,> 100 µM,> 100,> 100,> 100 µM,> 100 µM,> 100 µM,,,,,,,,,,,
COc1ccc(OC)c2sc(N3C(=O)/C(=C/c4ccccc4S)N=C3c3ccccc3)nc12,85.4,> 100 µM,78.2 µM,36.5 µM,> 100,> 100,> 100 µM,42.5 µM,> 100 µM,> 100 µM,,,,,,,,,,
O=C1CC(n2cccc2)c2cc(Br)sc21 (centres undefined),> 100,> 100 µM,> 100 µM,> 100 µM,> 100,> 100,> 100 µM,60 µM,> 100 µM,> 100 µM,,,,,,,,,,
CC(=O)C1=C(O)C2(O)C(=O)c3c(c(C)c4ccc(C)c(O)c4c3O)CC2C(N)C1=O (centres undefined),14.8,10.7 µM,14 µM,18.3 µM,10.7,7.99,8.29 µM,18.6 µM,13 µM,12.2 µM,,2.84 µM,,,,,,,,
Cc1nc(Cl)c(C)c(Cl)n1,> 100,> 100 µM,> 100 µM,> 100 µM,> 100,0.0695,> 100 µM,> 100 µM,34.5 µM,> 50.9 µM,,,,,,,,,,
